Measured values as given in ChEMBL document CHEMBL1201861, “Genomics of Drug Sensitity in Cancer screening data, Wellcome Trust Sanger Institute”.
Structures can show the parent of a compound that is named as a salt.

Experiments:
CAL-33 = experiment: cells; assay type: functional, cell-based, Homo sapiens; settings: Homo sapiens, CAL-33;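 further: growth inhibition of CAL-33 cells, read out with a cell viability assay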
Description: SANGER: Inhibition of human CAL-33 cell growth in a cell viability assay.

NCI-H522 = experiment: cells; assay type: functional, cell-based, Homo sapiens; settings: Homo sapiens, NCI-H522;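 further: cell viability assay measuring growth inhibition of human NCI-H522 cells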
Description: SANGER: Inhibition of human NCI-H522 cell growth in a cell viability assay.

LCLC-97TM1 = experiment: cells; assay type: functional, cell-based, Homo sapiens; settings: Homo sapiens, LCLC-97TM1;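 further: cell viability assay measuring growth inhibition of human LCLC-97TM1 cells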
Description: SANGER: Inhibition of human LCLC-97TM1 cell growth in a cell viability assay.

SW626 = experiment: cells; assay type: functional, cell-based, Homo sapiens; settings: Homo sapiens, SW626;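 further: growth inhibition of SW626 cells, measured with a cell viability assay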
Description: SANGER: Inhibition of human SW626 cell growth in a cell viability assay.

LC4-1 = experiment: cells; assay type: functional, cell-based, Homo sapiens; settings: Homo sapiens, LC4-1;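 further: growth inhibition of LC4-1 cells, read out with a cell viability assay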
Description: SANGER: Inhibition of human LC4-1 cell growth in a cell viability assay.

SW-620 = experiment: cells; assay type: functional, cell-based, Homo sapiens; settings: Homo sapiens, SW-620;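 further: growth inhibition of human SW-620 cells, measured by a cell viability assay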
Description: SANGER: Inhibition of human SW620 cell growth in a cell viability assay.

NCI-H810 = experiment: cells; assay type: functional, cell-based, Homo sapiens; settings: Homo sapiens, NCI-H810;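 further: IC50 reflects inhibition of cancer cell line growth, read out with a cell viability assay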
Description: SANGER: Inhibition of human NCI-H810 cell growth in a cell viability assay.

TALL-1 = experiment: cells; assay type: functional, cell-based, Homo sapiens; settings: Homo sapiens, TALL-1;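 further: growth inhibition of cultured human TALL-1 cells, read out by a cell viability assay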
Description: SANGER: Inhibition of human TALL-1 cell growth in a cell viability assay.

NCI-H2141 = experiment: cells; assay type: functional, cell-based, Homo sapiens; settings: Homo sapiens, NCI-H2141;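 further: growth inhibition of human NCI-H2141 cells, read out with a cell viability assay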
Description: SANGER: Inhibition of human NCI-H2141 cell growth in a cell viability assay.

SNU-C1 = experiment: cells; assay type: functional, cell-based, Homo sapiens; settings: Homo sapiens, SNU-C1;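 further: growth inhibition of SNU-C1 human cells, read out by a cell viability assay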
Description: SANGER: Inhibition of human SNU-C1 cell growth in a cell viability assay.

MKN-45 = experiment: cells; assay type: functional, cell-based, Homo sapiens; settings: Homo sapiens, MKN-45;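 further: growth inhibition of human MKN-45 cells, measured with a cell viability assay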
Description: SANGER: Inhibition of human MKN45 cell growth in a cell viability assay.

SW1088 = experiment: cells; assay type: functional, cell-based, Homo sapiens; settings: Homo sapiens, SW1088;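 further: growth inhibition of human SW1088 cells, read out by a cell viability assay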
Description: SANGER: Inhibition of human SW1088 cell growth in a cell viability assay.

BCPAP = experiment: cells; assay type: functional, cell-based, Homo sapiens; settings: Homo sapiens, BCPAP
Description: SANGER: Inhibition of human BCPAP cell growth in a cell viability assay.

A-427 = experiment: cells; assay type: functional, cell-based, Homo sapiens; settings: Homo sapiens, A-427;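 further: growth inhibition of human A-427 cells, read out by a cell viability assay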
Description: SANGER: Inhibition of human A427 cell growth in a cell viability assay.

IMR-5 = experiment: cells; assay type: functional, cell-based, Homo sapiens; settings: Homo sapiens, IMR-5;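 further: growth inhibition of human IMR-5 cells, read out with a cell viability assay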
Description: SANGER: Inhibition of human IMR-5 cell growth in a cell viability assay.

RPMI 8402 = experiment: SANGER: Inhibition of human RPMI-8402 cell growth in a cell viability assay.; assay type: functional, cell-based; settings: Homo sapiens, RPMI 8402; read-out: IC50
YT = experiment: cells; assay type: functional, cell-based, Homo sapiens; settings: Homo sapiens, YT
Description: SANGER: Inhibition of human YT cell growth in a cell viability assay.

ESS-1 = experiment: cells; assay type: functional, cell-based, Homo sapiens; settings: Homo sapiens, ESS-1;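 further: growth inhibition of human ESS-1 cells, read out by a cell viability assay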
Description: SANGER: Inhibition of human ESS-1 cell growth in a cell viability assay.

CHP-212 = experiment: cells; assay type: functional, cell-based, Homo sapiens; settings: Homo sapiens, CHP-212
Description: SANGER: Inhibition of human CHP-212 cell growth in a cell viability assay.

LP-1 = experiment: cells; assay type: functional, cell-based, Homo sapiens; settings: Homo sapiens, LP-1;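 further: growth inhibition of human LP-1 cells, with the read-out taken from a cell viability assay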
Description: SANGER: Inhibition of human LP-1 cell growth in a cell viability assay.

KYSE-450 = experiment: cells; assay type: functional, cell-based, Homo sapiens; settings: Homo sapiens, KYSE-450;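 further: cell growth inhibition measured by a viability assay in human KYSE-450 cells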
Description: SANGER: Inhibition of human KYSE-450 cell growth in a cell viability assay.

A-375 = experiment: cells; assay type: functional, cell-based, Homo sapiens; settings: Homo sapiens, A-375;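 further: growth inhibition of A375 cells, read out with a cell viability assay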
Description: SANGER: Inhibition of human A375 cell growth in a cell viability assay.

KOSC-2 = experiment: cells; assay type: functional, cell-based, Homo sapiens; settings: Homo sapiens, KOSC-2;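 further: growth inhibition of KOSC-2 cells, read out by a cell viability assay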
Description: SANGER: Inhibition of human KOSC-2 cell growth in a cell viability assay.

EB2 = experiment: cells; assay type: functional, cell-based, Homo sapiens; settings: Homo sapiens, EB2;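 further: growth inhibition of EB2 cells, read out with a cell viability assay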
Description: SANGER: Inhibition of human EB2 cell growth in a cell viability assay.

MEL-HO = experiment: cells; assay type: functional, cell-based, Homo sapiens; settings: Homo sapiens, MEL-HO
Description: SANGER: Inhibition of human MEL-HO cell growth in a cell viability assay.

A673 = experiment: cells; assay type: functional, cell-based, Homo sapiens; settings: Homo sapiens, A673;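 further: growth inhibition of human A673 cells, read out through a cell viability assay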
Description: SANGER: Inhibition of human A673 cell growth in a cell viability assay.

NCI-H596 = experiment: cells; assay type: functional, cell-based, Homo sapiens; settings: Homo sapiens, NCI-H596;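 further: growth inhibition of NCI-H596 cells, read out with a cell viability assay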
Description: SANGER: Inhibition of human NCI-H596 cell growth in a cell viability assay.

DoTc2-4510 = experiment: cells; assay type: functional, cell-based, Homo sapiens; settings: Homo sapiens, DoTc2-4510
BL-70 = experiment: SANGER: Inhibition of human BL-70 cell growth in a cell viability assay.; assay type: functional, cell-based; settings: Homo sapiens, BL-70
IM-9 = experiment: SANGER: Inhibition of human IM-9 cell growth in a cell viability assay.; assay type: functional, cell-based; settings: Homo sapiens, IM-9
OAW-28 = experiment: cells; assay type: functional, cell-based, Homo sapiens; settings: Homo sapiens, OAW-28;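 further: growth inhibition of OAW-28 cells, read out with a cell viability assay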
Description: SANGER: Inhibition of human OAW-28 cell growth in a cell viability assay.

HT55 = experiment: cells; assay type: functional, cell-based, Homo sapiens; settings: Homo sapiens, HT55;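 further: cell viability readout measuring growth inhibition of human HT55 cells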
Description: SANGER: Inhibition of human HT55 cell growth in a cell viability assay.

HTC-C3 = experiment: cells; assay type: functional, cell-based, Homo sapiens; settings: Homo sapiens, HTC-C3
Description: SANGER: Inhibition of human HTC-C3 cell growth in a cell viability assay.

SK-N-AS = experiment: cells; assay type: functional, cell-based, Homo sapiens; settings: Homo sapiens, SK-N-AS;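 further: growth inhibition of human SK-N-AS cells, measured with a cell viability assay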
Description: SANGER: Inhibition of human SK-N-AS cell growth in a cell viability assay.

EVSA-T = experiment: cells; assay type: functional, cell-based, Homo sapiens; settings: Homo sapiens, EVSA-T;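 further: growth inhibition of EVSA-T cells, read out with a cell viability assay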
Description: SANGER: Inhibition of human EVSA-T cell growth in a cell viability assay.

KYSE-520 cell line = experiment: cells; assay type: functional, cell-based, Homo sapiens; settings: Homo sapiens, KYSE-520;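 further: growth inhibition of human KYSE-520 cells, read out with a viability assay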
Description: SANGER: Inhibition of human KYSE-520 cell growth in a cell viability assay.

NCI-H292 = experiment: cells; assay type: functional, cell-based, Homo sapiens; settings: Homo sapiens, NCI-H292;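 further: growth inhibition of NCI-H292 cells, read out with a cell viability assay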
Description: SANGER: Inhibition of human NCI-H292 cell growth in a cell viability assay.

Daoy = experiment: cells; assay type: functional, cell-based, Homo sapiens; settings: Homo sapiens, Daoy
Description: SANGER: Inhibition of human Daoy cell growth in a cell viability assay.

HuP-T3 = experiment: cells; assay type: functional, cell-based, Homo sapiens; settings: Homo sapiens, HuP-T3;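 further: HuP-T3 cell growth inhibition, read out with a cell viability assay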
Description: SANGER: Inhibition of human HuP-T3 cell growth in a cell viability assay.

CAKI-1 = experiment: cells; assay type: functional, cell-based, Homo sapiens; settings: Homo sapiens, CAKI-1;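 further: growth inhibition of CAKI-1 cells, measured by a cell viability assay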
Description: SANGER: Inhibition of human CAKI-1 cell growth in a cell viability assay.

SK-MEL3 = experiment: cells; assay type: functional, cell-based, Homo sapiens, SK-MEL-3; settings: Homo sapiens, SK-MEL3;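 further: growth inhibition of human SK-MEL-3 cells, read out with a cell viability assay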
Description: SANGER: Inhibition of human SK-MEL-3 cell growth in a cell viability assay.

SK-MEL-28 = experiment: cells; assay type: functional, cell-based, Homo sapiens; settings: Homo sapiens, SK-MEL-28;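 further: growth inhibition of human SK-MEL-28 cells, read out with a cell viability assay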
Description: SANGER: Inhibition of human SK-MEL-28 cell growth in a cell viability assay.

HCC70 = experiment: cells; assay type: functional, cell-based, Homo sapiens; settings: Homo sapiens, HCC70;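 further: cell viability assay measuring how strongly the compound suppresses proliferation of HCC70 cells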
Description: SANGER: Inhibition of human HCC70 cell growth in a cell viability assay.

CAL-54 = experiment: cells; assay type: functional, cell-based, Homo sapiens; settings: Homo sapiens, CAL-54;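 further: growth inhibition of CAL-54 cells, read out by a viability measurement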
Description: SANGER: Inhibition of human CAL-54 cell growth in a cell viability assay.

RERF-LC-MS = experiment: cells; assay type: functional, cell-based, Homo sapiens; settings: Homo sapiens, RERF-LC-MS;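 further: growth inhibition of human RERF-LC-MS cells, read out by a cell viability assay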
Description: SANGER: Inhibition of human RERF-LC-MS cell growth in a cell viability assay.

8505C = experiment: cells; assay type: functional, cell-based, Homo sapiens; settings: Homo sapiens, 8505C
Description: SANGER: Inhibition of human 8505C cell growth in a cell viability assay.

Compound `Nc1ccn([C@@H]2O[C@H](CO)[C@@H](O)C2(F)F)c(=O)n1` [GEMCITABINE] has an IC50 (CAL-33) of 1.89 nM, an IC50 (NCI-H522) of 4.34 nM and an IC50 (LCLC-97TM1) of under 4 nM. It also gave an IC50 (SW626) of 4.46 nM, an IC50 (LC4-1) of 74.7 nM and an IC50 (SW-620) of 1.35 nM. It also gave an IC50 (NCI-H810) of 8.56 nM, an IC50 (TALL-1) of over 1020 nM and an IC50 (NCI-H2141) of 644 nM. The IC50 (SNU-C1) was over 1020 nM, the IC50 (MKN-45) was 17.7 nM and the IC50 (SW1088) was over 1020 nM. It also gave an IC50 (BCPAP) of 1.45 nM, an IC50 (A-427) of 324 nM and an IC50 (IMR-5) of 83 nM. The IC50 (RPMI 8402) was 45.9 nM, the IC50 (YT) was over 1020 nM and the IC50 (ESS-1) was under 4 nM. For the same compound, the IC50 (CHP-212) was 2.75 nM, the IC50 (LP-1) was over 1020 nM and the IC50 (KYSE-450) was 6.32 nM. It also gave an IC50 (A-375) of under 4 nM, an IC50 (KOSC-2) of over 1020 nM and an IC50 (EB2) of 2.01 nM. For the same compound, the IC50 (MEL-HO) was 5.16 nM, the IC50 (A673) was 34.2 nM and the IC50 (NCI-H596) was 225 nM. It also gave an IC50 (DoTc2-4510) of under 4 nM, an IC50 (BL-70) of 111 nM and an IC50 (IM-9) of 347 nM. For the same compound, the IC50 (OAW-28) was 45.4 nM, the IC50 (HT55) was over 1020 nM and the IC50 (HTC-C3) was 996 nM. The IC50 (SK-N-AS) was over 1020 nM, the IC50 (EVSA-T) was over 1020 nM and the IC50 (KYSE-520 cell line) was 92.8 nM. The IC50 (NCI-H292) was 20.8 nM, the IC50 (Daoy) was under 4 nM and the IC50 (HuP-T3) was 146 nM. It also gave an IC50 (CAKI-1) of over 1020 nM, an IC50 (SK-MEL3) of 105 nM and an IC50 (SK-MEL-28) of over 1020 nM. It also gave an IC50 (HCC70) of over 1020 nM, an IC50 (CAL-54) of 298 nM and an IC50 (RERF-LC-MS) of 177 nM. It also gave an IC50 (8505C) of 1.06 nM.

Compound `COC1=CC(c2cc3ccccc3[nH]2)=N/C1=C\c1[nH]c(C)cc1C` [OBATOCLAX MESYLATE] has an IC50 (CAL-33) of 508 nM, an IC50 (NCI-H522) of 181 nM and an IC50 (LCLC-97TM1) of 55.9 nM. The IC50 (SW626) was 72 nM, the IC50 (LC4-1) was 514 nM and the IC50 (SW-620) was under 62.5 nM. For the same compound, the IC50 (NCI-H810) was 117 nM, the IC50 (TALL-1) was over 16000 nM and the IC50 (NCI-H2141) was 1190 nM. It also gave an IC50 (SNU-C1) of over 16000 nM, an IC50 (MKN-45) of 1990 nM and an IC50 (SW1088) of 2780 nM. It also gave an IC50 (BCPAP) of 58.9 nM, an IC50 (A-427) of 85.1 nM and an IC50 (IMR-5) of 32.4 nM. The IC50 (RPMI 8402) was 18.6 nM, the IC50 (YT) was 73.4 nM and the IC50 (ESS-1) was 72.5 nM. For the same compound, the IC50 (CHP-212) was 81 nM, the IC50 (LP-1) was 213 nM and the IC50 (KYSE-450) was under 62.5 nM. For the same compound, the IC50 (A-375) was under 62.5 nM, the IC50 (KOSC-2) was 9630 nM and the IC50 (EB2) was under 62.5 nM. It also gave an IC50 (MEL-HO) of 23.5 nM, an IC50 (A673) of 752 nM and an IC50 (NCI-H596) of 236 nM. The IC50 (DoTc2-4510) was 33.9 nM, the IC50 (BL-70) was 63 nM and the IC50 (IM-9) was 330 nM. The IC50 (OAW-28) was 202 nM, the IC50 (HT55) was 2790 nM and the IC50 (HTC-C3) was 104 nM. It also gave an IC50 (SK-N-AS) of 1050 nM, an IC50 (EVSA-T) of 817 nM and an IC50 (KYSE-520 cell line) of 483 nM. For the same compound, the IC50 (NCI-H292) was 176 nM, the IC50 (Daoy) was 56.2 nM and the IC50 (HuP-T3) was 528 nM. It also gave an IC50 (CAKI-1) of 1720 nM, an IC50 (SK-MEL3) of under 62.5 nM and an IC50 (SK-MEL-28) of 1230 nM. It also gave an IC50 (HCC70) of 1460 nM, an IC50 (CAL-54) of 1310 nM and an IC50 (RERF-LC-MS) of 1060 nM. It also gave an IC50 (8505C) of 30.4 nM.

`C=C(c1ccc(C(=O)O)cc1)c1cc2c(cc1C)C(C)(C)CCC2(C)C` [BEXAROTENE] was tested, and the IC50 (CAL-33) was over 8000 nM, the IC50 (NCI-H522) was over 8000 nM and the IC50 (LCLC-97TM1) was over 8000 nM. The IC50 (SW626) was over 8000 nM, the IC50 (LC4-1) was over 8000 nM and the IC50 (SW-620) was over 8000 nM. The IC50 (NCI-H810) was over 8000 nM, the IC50 (TALL-1) was over 8000 nM and the IC50 (NCI-H2141) was over 8000 nM. The IC50 (SNU-C1) was over 8000 nM, the IC50 (MKN-45) was over 8000 nM and the IC50 (SW1088) was over 8000 nM. For the same compound, the IC50 (BCPAP) was over 8000 nM, the IC50 (A-427) was 5970 nM and the IC50 (IMR-5) was over 8000 nM. For the same compound, the IC50 (RPMI 8402) was over 8000 nM, the IC50 (YT) was over 8000 nM and the IC50 (ESS-1) was over 8000 nM. For the same compound, the IC50 (CHP-212) was over 8000 nM, the IC50 (LP-1) was over 8000 nM and the IC50 (KYSE-450) was over 8000 nM. It also gave an IC50 (A-375) of over 8000 nM, an IC50 (KOSC-2) of over 8000 nM and an IC50 (EB2) of over 8000 nM. The IC50 (MEL-HO) was 531 nM, the IC50 (A673) was over 8000 nM and the IC50 (NCI-H596) was over 8000 nM. It also gave an IC50 (DoTc2-4510) of over 8000 nM, an IC50 (BL-70) of over 8000 nM and an IC50 (IM-9) of over 8000 nM. The IC50 (OAW-28) was over 8000 nM, the IC50 (HT55) was over 8000 nM and the IC50 (HTC-C3) was over 8000 nM. It also gave an IC50 (SK-N-AS) of over 8000 nM, an IC50 (EVSA-T) of over 8000 nM and an IC50 (KYSE-520 cell line) of over 8000 nM. For the same compound, the IC50 (NCI-H292) was over 8000 nM, the IC50 (Daoy) was over 8000 nM and the IC50 (HuP-T3) was over 8000 nM. For the same compound, the IC50 (CAKI-1) was over 8000 nM, the IC50 (SK-MEL3) was over 8000 nM and the IC50 (SK-MEL-28) was over 8000 nM. It also gave an IC50 (HCC70) of over 8000 nM, an IC50 (CAL-54) of over 8000 nM and an IC50 (RERF-LC-MS) of over 8000 nM. It also gave an IC50 (8505C) of over 8000 nM.
